{"source": "ChEMBL document CHEMBL4715814", "about": "“Design, synthesis and biological activity evaluation of novel 4-subtituted 2-naphthamide derivatives as AcrB inhibitors” (2018)", "key": {"Escherichia coli [1]": {"tested_on": "Escherichia coli", "assay": "Antibacterial activity against Wild type Escherichia coli BW25113 assessed as inhibition of AcrB efflux pump by mesuring the glucose-induced nile red efflux at 200 uM preincubated with CCCP for 15 mins followed by compound addition after 15 mins nile red added and incubated for 3 hrs in shaker by fluorimetric analysis", "format": "functional, organism-based", "settings": "time 195.0 min"}, "Cell membrane [2]": {"tested_on": "Cell membrane", "assay": "Induction of outer membrane permeabilization in wild type Escherichia coli BW25113 assessed as increase in nitrocefin hydrolysis at 512 ug/ml measured for 30 mins in presence of CCCP by spectrophotometry analysis", "format": "subcellular", "settings": "dose 512.0 µg/ml"}, "Escherichia coli [3]": {"tested_on": "Escherichia coli", "assay": "Potentiation of TPP-induced antibacterial activity against AcrB deficient Escherichia coli BW25113 assessed as TPP MIC at 128 ug/ml incubated for 18 hrs under aerobic condition by checkerboard titration assay (reference value: 256 ug/ml)", "format": "functional", "settings": "dose 128 µg/ml"}, "Escherichia coli [4]": {"tested_on": "Escherichia coli", "assay": "Potentiation of chloramphenicol-induced antibacterial activity against AcrB deficient Escherichia coli BW25113 assessed as chloramphenicol MIC at 128 ug/ml incubated for 18 hrs under aerobic condition by checkerboard titration assay (reference value: 2 ug/ml)", "format": "functional", "settings": "dose 128 µg/ml"}, "Escherichia coli [5]": {"tested_on": "Escherichia coli", "assay": "Potentiation of chloramphenicol-induced antibacterial activity against AcrB deficient Escherichia coli BW25113 assessed as chloramphenicol MIC at 256 ug/ml incubated for 18 hrs under aerobic condition by checkerboard titration assay (reference value: 2 ug/ml)", "format": "functional", "settings": "dose 256 µg/ml"}, "Escherichia coli [6]": {"tested_on": "Escherichia coli", "assay": "Potentiation of TPP-induced antibacterial activity against AcrB deficient Escherichia coli BW25113 assessed as TPP MIC at 256 ug/ml incubated for 18 hrs under aerobic condition by checkerboard titration assay (reference value: 256 ug/ml)", "format": "functional", "settings": "dose 256 µg/ml"}, "Escherichia coli [7]": {"tested_on": "Escherichia coli", "assay": "Potentiation of erythromycin-induced antibacterial activity against AcrB deficient Escherichia coli BW25113 assessed as erythromycin MIC at 128 ug/ml incubated for 18 hrs under aerobic condition by checkerboard titration assay (reference value: 32 ug/ml)", "format": "functional", "settings": "dose 128 µg/ml"}, "Escherichia coli [8]": {"tested_on": "Escherichia coli", "assay": "Potentiation of erythromycin-induced antibacterial activity against AcrB deficient Escherichia coli BW25113 assessed as erythromycin MIC at 256 ug/ml incubated for 18 hrs under aerobic condition by checkerboard titration assay (reference value: 32 ug/ml)", "format": "functional", "settings": "dose 256 µg/ml"}, "Escherichia coli [9]": {"tested_on": "Escherichia coli", "assay": "Potentiation of TPP-induced antibacterial activity against wild type Escherichia coli BW25113 assessed as TPP MIC at 256 ug/ml incubated for 18 hrs under aerobic condition by checkerboard titration assay (reference value: 1024 ug/ml)", "format": "functional", "settings": "dose 256 µg/ml"}, "Escherichia coli [10]": {"tested_on": "Escherichia coli", "assay": "Potentiation of TPP-induced antibacterial activity against wild type Escherichia coli BW25113 assessed as TPP MIC at 128 ug/ml incubated for 18 hrs under aerobic condition by checkerboard titration assay (reference value: 1024 ug/ml)", "format": "functional", "settings": "dose 128 µg/ml"}, "Escherichia coli [11]": {"tested_on": "Escherichia coli", "assay": "Potentiation of chloramphenicol-induced antibacterial activity against wild type Escherichia coli BW25113 assessed as chloramphenicol MIC at 256 ug/ml incubated for 18 hrs under aerobic condition by checkerboard titration assay (reference value: 16 ug/ml)", "format": "functional", "settings": "dose 256 µg/ml"}, "Escherichia coli [12]": {"tested_on": "Escherichia coli", "assay": "Potentiation of chloramphenicol-induced antibacterial activity against wild type Escherichia coli BW25113 assessed as chloramphenicol MIC at 128 ug/ml incubated for 18 hrs under aerobic condition by checkerboard titration assay (reference value: 16 ug/ml)", "format": "functional", "settings": "dose 128 µg/ml"}, "Escherichia coli [13]": {"tested_on": "Escherichia coli", "assay": "Potentiation of rifampicin-induced antibacterial activity against wild type Escherichia coli BW25113 assessed as rifampicin MIC at 128 ug/ml incubated for 18 hrs under aerobic condition by checkerboard titration assay (reference value: 16 ug/ml)", "format": "functional", "settings": "dose 128 µg/ml"}, "Escherichia coli [14]": {"tested_on": "Escherichia coli", "assay": "Potentiation of rifampicin-induced antibacterial activity against wild type Escherichia coli BW25113 assessed as rifampicin MIC at 256 ug/ml incubated for 18 hrs under aerobic condition by checkerboard titration assay (reference value: 16 ug/ml)", "format": "functional", "settings": "dose 256 µg/ml"}, "Cell membrane [15]": {"tested_on": "Cell membrane", "assay": "Disruption of inner membrane potential in wild type Escherichia coli BW25113 at 512 ug/ml preincubated for 10 mins followed by glucose stimulation and CCCP addition by DiOC2 probe based fluorimetric analysis", "format": "subcellular", "settings": "dose 512.0 µg/ml"}, "Escherichia coli [16]": {"tested_on": "Escherichia coli", "assay": "Potentiation of erythromycin-induced antibacterial activity against wild type Escherichia coli BW25113 assessed as erythromycin MIC at 256 ug/ml incubated for 18 hrs under aerobic condition by checkerboard titration assay (reference value: 128 ug/ml)", "format": "functional", "settings": "dose 256 µg/ml"}, "Escherichia coli [17]": {"tested_on": "Escherichia coli", "assay": "Potentiation of erythromycin-induced antibacterial activity against wild type Escherichia coli BW25113 assessed as erythromycin MIC at 128 ug/ml incubated for 18 hrs under aerobic condition by checkerboard titration assay (reference value: 128 ug/ml)", "format": "functional", "settings": "dose 128 µg/ml"}, "Escherichia coli [18]": {"tested_on": "Escherichia coli", "assay": "Antibacterial activity against AcrB deficient Escherichia coli BW25113 assessed as inhibition of bacterial growth at 256 ug/ml after 18 hrs by microtitre broth dilution assay", "format": "functional, organism-based", "settings": "dose 256.0 µg/ml"}, "Escherichia coli [19]": {"tested_on": "Escherichia coli", "assay": "Antibacterial activity against wild type Escherichia coli BW25113 assessed as inhibition of bacterial growth at 256 ug/ml after 18 hrs by microtitre broth dilution assay", "format": "functional, organism-based", "settings": "dose 256.0 µg/ml"}, "Escherichia coli [20]": {"tested_on": "Escherichia coli", "assay": "Potentiation of erythromycin-induced antibacterial activity against wild type Escherichia coli BW25113 assessed as fold reduction in erythromycin MIC at 128 ug/ml incubated for 18 hrs under aerobic condition by checkerboard titration assay relative to erythromycin MIC alone", "format": "functional", "settings": "dose 128 µg/ml"}, "Escherichia coli [21]": {"tested_on": "Escherichia coli", "assay": "Potentiation of erythromycin-induced antibacterial activity against Escherichia coli BW25113 assessed as erythromycin MIC at 32 ug/ml incubated for 18 hrs under aerobic condition in presence of EDTA by checkerboard titration assay", "format": "functional, organism-based", "settings": "dose 32.0 µg/ml"}, "Escherichia coli [22]": {"tested_on": "Escherichia coli", "assay": "Potency index, ratio of A3 MIC to compound MIC for potentiation of erythromycin-induced antibacterial activity against Escherichia coli BW25113", "format": "functional"}, "Escherichia coli [23]": {"tested_on": "Escherichia coli", "assay": "Potentiation of TPP-induced antibacterial activity against AcrB deficient Escherichia coli BW25113 assessed as TPP MIC at 200 ug/ml incubated for 18 hrs under aerobic condition by checkerboard titration assay (reference value: 256 ug/ml)", "format": "functional", "settings": "dose 200 µg/ml"}, "Escherichia coli [24]": {"tested_on": "Escherichia coli", "assay": "Potentiation of chloramphenicol-induced antibacterial activity against AcrB deficient Escherichia coli BW25113 assessed as chloramphenicol MIC at 200 ug/ml incubated for 18 hrs under aerobic condition by checkerboard titration assay (reference value: 2 ug/ml)", "format": "functional", "settings": "dose 200 µg/ml"}, "Escherichia coli [25]": {"tested_on": "Escherichia coli", "assay": "Potentiation of erythromycin-induced antibacterial activity against AcrB deficient Escherichia coli BW25113 assessed as erythromycin MIC at 200 ug/ml incubated for 18 hrs under aerobic condition by checkerboard titration assay (reference value: 32 ug/ml)", "format": "functional", "settings": "dose 200 µg/ml"}, "Escherichia coli [26]": {"tested_on": "Escherichia coli", "assay": "Potentiation of rifampicin-induced antibacterial activity against wild type Escherichia coli BW25113 assessed as rifampicin MIC at 200 ug/ml incubated for 18 hrs under aerobic condition by checkerboard titration assay (reference value: 16 ug/ml)", "format": "functional", "settings": "dose 200 µg/ml"}, "Escherichia coli [27]": {"tested_on": "Escherichia coli", "assay": "Potentiation of TPP-induced antibacterial activity against wild type Escherichia coli BW25113 assessed as TPP MIC at 200 ug/ml incubated for 18 hrs under aerobic condition by checkerboard titration assay (reference value: 1024 ug/ml)", "format": "functional", "settings": "dose 200 µg/ml"}, "Escherichia coli [28]": {"tested_on": "Escherichia coli", "assay": "Potentiation of chloramphenicol-induced antibacterial activity against wild type Escherichia coli BW25113 assessed as chloramphenicol MIC at 200 ug/ml incubated for 18 hrs under aerobic condition by checkerboard titration assay (reference value: 16 ug/ml)", "format": "functional", "settings": "dose 200 µg/ml"}, "Escherichia coli [29]": {"tested_on": "Escherichia coli", "assay": "Potentiation of erythromycin-induced antibacterial activity against wild type Escherichia coli BW25113 assessed as erythromycin MIC at 200 ug/ml incubated for 18 hrs under aerobic condition by checkerboard titration assay (reference value: 128 ug/ml)", "format": "functional", "settings": "dose 200 µg/ml"}}, "note": "Activity calls are given as the source filed them. The calls are words filed in the database; no cut-off is given here. Peptide text beside a SMILES is read from it. * marks the point of attachment. βNA = c1ccc2cc(N*)ccc2c1"}
{"molecule": "CC(C)NCCOc1cc(C(N)=O)cc2ccccc12", "values": [{"measurement": "Activity", "setting": "Escherichia coli [1]", "result": "Active"}, {"measurement": "Activity", "setting": "Cell membrane [2]", "result": "inactive"}, {"measurement": "MIC", "setting": "Escherichia coli [3]", "result": 256, "unit": "µg/mL"}, {"measurement": "MIC", "setting": "Escherichia coli [4]", "result": 2, "unit": "µg/mL"}, {"measurement": "MIC", "setting": "Escherichia coli [5]", "result": 2, "unit": "µg/mL"}, {"measurement": "MIC", "setting": "Escherichia coli [6]", "result": 256, "unit": "µg/mL"}, {"measurement": "MIC", "setting": "Escherichia coli [7]", "result": 32, "unit": "µg/mL"}, {"measurement": "MIC", "setting": "Escherichia coli [8]", "result": 32, "unit": "µg/mL"}, {"measurement": "MIC", "setting": "Escherichia coli [9]", "result": 1020, "unit": "µg/mL"}, {"measurement": "MIC", "setting": "Escherichia coli [10]", "result": 1020, "unit": "µg/mL"}, {"measurement": "MIC", "setting": "Escherichia coli [11]", "result": 16, "unit": "µg/mL"}, {"measurement": "MIC", "setting": "Escherichia coli [12]", "result": 16, "unit": "µg/mL"}, {"measurement": "MIC", "setting": "Escherichia coli [13]", "result": 16, "unit": "µg/mL"}, {"measurement": "MIC", "setting": "Escherichia coli [14]", "result": 16, "unit": "µg/mL"}, {"measurement": "Activity", "setting": "Cell membrane [15]", "result": "inactive"}, {"measurement": "MIC", "setting": "Escherichia coli [16]", "result": 16, "unit": "µg/mL"}, {"measurement": "MIC", "setting": "Escherichia coli [17]", "result": 16, "unit": "µg/mL"}, {"measurement": "Activity", "setting": "Escherichia coli [18]", "result": "Active"}, {"measurement": "Activity", "setting": "Escherichia coli [19]", "result": "inactive"}, {"measurement": "fold change (FC)", "setting": "Escherichia coli [20]", "result": 8}, {"measurement": "Activity", "setting": "Escherichia coli [21]", "result": "Active"}, {"measurement": "Ratio", "setting": "Escherichia coli [22]", "result": 16}]}
{"molecule": "N=C(N)NCCC[C@H](NC(=O)[C@@H](N)Cc1ccccc1)C(=O)Nc1ccc2ccccc2c1", "note": "[PABETAN] (H-Phe-Arg-βNA)", "values": [{"measurement": "MIC", "setting": "Escherichia coli [23]", "result": 256, "unit": "µg/mL"}, {"measurement": "MIC", "setting": "Escherichia coli [24]", "result": 2, "unit": "µg/mL"}, {"measurement": "MIC", "setting": "Escherichia coli [25]", "result": 16, "unit": "µg/mL"}, {"measurement": "MIC", "setting": "Escherichia coli [26]", "result": 2, "unit": "µg/mL"}, {"measurement": "MIC", "setting": "Escherichia coli [27]", "result": 256, "unit": "µg/mL"}, {"measurement": "MIC", "setting": "Escherichia coli [28]", "result": 2, "unit": "µg/mL"}, {"measurement": "MIC", "setting": "Escherichia coli [29]", "result": 16, "unit": "µg/mL"}]}
